IC50 data for 13 molecules are collected here from patent publication EP1801112A1, “Bicyclic pyrimidines and bicyclic 3,4-dihydropyrimidines as inhibitors of cellular proliferation” (Warner-Lambert Company LLC, priority 1998, dated 1999).

SMILES strings stand for the structures. Read-outs that look alike come from different tables or passages of the source.

For test [1], the target named is T1, FGF-1 (flg) receptor tyrosine kinase (Homo sapiens, UniProt P11362).
T1 construct: amplify a fragment of DNA that codes for the intracellular tyrosine kinase domain; made in house; host or cells: SF9 insect cells (baculovirus); crude cell lysate used
The test can be described thus: FGF Receptor Tyrosine Kinase Assay. The class given is biochemical. As to conditions: glutamate-tyrosine co-polymer substrate, 50 µM ATP. As for the experimental part: PDGF and FGF Receptor Tyrosine Kinase Assays
PCR primers were designed to amplify a fragment of DNA that codes for the intracellular tyrosine kinase domain. The fragment was inserted into a baculovirus vector, cotransfected with AcMNPV DNA, and the recombinant virus isolated. SF9 insect cells were infected with the virus to overexpress the protein, and the cell lysate was used for the assay. Assays were performed in 96-well plates (100 µL/incubation/well), and conditions were optimized to measure the incorporation of ^32P from γ^32P-ATP into a glutamate-tyrosine co-polymer substrate. Briefly, to each well was added 82.5 µL of incubation buffer containing 25 mM Hepes (pH 7.0), 150 mM NaCl, 0.1% Triton X-100, 0.2 mM PMSF, 0.2 mM Na3VO4, 10 mM MnCl2, and 750 µg/mL of Poly (4:1) glutamate-tyrosine followed by 2.5 µL of inhibitor and 5 µL of enzyme lysate (7.5 µg/µL FGF-TK or 6.0 µg/µL PDGF-TK) to initiate the reaction. […] The reaction was terminated by the addition of 100 µL of 30% trichloroacetic acid (TCA) containing 20 mM sodium pyrophosphate and precipitation of material onto glass fiber mats (Wallac). […] Nonspecific activity was defined as radioactivity retained on the filters following incubation of samples with buffer alone (no enzyme). Specific enzymatic activity (enzyme plus buffer) was defined as total activity minus nonspecific activity. […]

The next test concerns the target T2, c-Src (Homo sapiens, UniProt P12931).
T2 construct: made in house; host or cells: baculovirus infected insect cells
The test can be described thus: c-Src protein kinase assay. The class given is biochemical. As to conditions: poly GluTyr substrate, 5 µM ATP. As for the experimental part: The assay was carried out as follows: c-Src kinase was purified from baculovirus infected insect cell lysates using an antipeptide monoclonal antibody directed against the N-terminal amino acids (amino acids 2-17) of c-Src. The antibody, covalently linked to 0.65 µm latex beads, was added to a suspension of insect cell lysis buffer comprised of 150 mM NaCl, 50 mM Tris pH 7.5, 1 mM DTT, 1% NP-40, 2 mM EGTA, 1 mM sodium vanadate, 1 mM PMSF, 1 µg/mL each of leupeptin, pepstatin, and aprotinin. Insect cell lysate containing c-Src protein was incubated with these beads for 3 to 4 hours at 4°C with rotation. At the end of the lysate incubation, the beads were rinsed three times in lysis buffer, resuspended in lysis buffer containing 10% glycerol, and frozen. These latex beads were thawed, rinsed three times in assay buffer (40 mM Tris, pH 7.5, […]) and suspended in the same buffer. In a Millipore 96-well plate with a 0.65 µm polyvinylidine membrane bottom were added the reaction components: 10 µL c-Src beads, 10 µL of 2.5 mg/mL poly GluTyr substrate, 5 µM ATP containing 0.2 µCi labeled ^32P-ATP, 5 µL DMSO containing inhibitors or as a solvent control, and buffer to make the final volume 125 µL. The reaction was started at room temperature by addition of the ATP and quenched 10 minutes later by the addition of 125 µL of 30% TCA, 0.1 M sodium pyrophosphate for 5 minutes on ice. […] The filters were then punched, counted in a liquid scintillation counter, and the data examined for inhibitory activity in comparison to a known inhibitor such as erbstatin. […]

Another test deals with cdk4/D (Homo sapiens, UniProt P11802). The test can be described thus: Cyclin-Dependent Kinase 4 (cdk4) Assay. The class given is biochemical. As for the experimental part: A typical assay, for instance, measures inhibitory activity against the cyclin D dependent kinase 4 enzyme (cdk4/D). […] The cdk4 assay was carried out as follows.
Cyclin-Dependent Kinase 4 (cdk4) Assay
Enzyme assays for IC50 determinations (Tables 1 and 2) and kinetic evaluation were performed in 96 well filter plates (Millipore MADVN6550). The total volume was 0.1 mL containing a final concentration of 20 mM TRIS (tris[hydroxymethyl]aminomethane), at pH 7.4, 50 mM NaCl, 1 mM dithiothreitol, 10 mM MgCl2, 25 µM ATP containing 0.25 µCi of [^32P]ATP, 20 ng of cdk4, 1 µg of retinoblastoma, and appropriate dilutions of a compound of the present invention. All components except the ATP were added to the wells, and the plate was placed on a plate mixer for 2 minutes. The reaction was started by adding [^32P]ATP and the plate was incubated at 25°C for 15 minutes. The reaction was terminated by addition of 0.1 mL of 20% trichloroacetic acid (TCA). The plate was kept at 4°C for at least 1 hour to allow the substrate to precipitate. The wells were then washed five times with 0.2 mL of 10% TCA and ^32P incorporation was determined with a beta plate counter (Wallac Inc., Gaithersburg, MD).

For another test, the target named is cdc2/cyclinB (Homo sapiens, UniProt P06493). Put plainly: Cyclin-Dependent Kinase Assay cdc2/cyclinB. The class given is biochemical. The procedure:
(§1) Cyclin-Dependent Kinase Assays (cdk2/cyclinE, cdk2/cyclinA, cdc2/cyclinB)
(§2) All components except the ATP were added to the wells, and the plate was placed on a plate mixer for 2 minutes. The reaction was begun by addition of [^32P]ATP, and the plate was incubated at 25°C for 15 minutes. The reaction was terminated by addition of 0.1 mL of 20% TCA. The plate was kept at 4°C for at least 1 hour to allow the substrate to precipitate. The wells were then washed five times with 0.2 mL of 10% TCA and ^32P incorporation determined with a beta plate counter (Wallac Inc., Gaithersburg, MD).

Another test deals with cdk2/cyclinA (Homo sapiens, UniProt P24941). Put plainly: Cyclin-Dependent Kinase Assay cdk2/cyclinA. The class given is biochemical. As for the experimental part:
as §1, §2

In the next test the target is cdk2/cyclinE (Homo sapiens, UniProt P24941). The test can be described thus: Cyclin-Dependent Kinase Assay cdk2/cyclinE. The class given is biochemical. The procedure:
as §1, §2

For test [2], the system named is human umbilical vein endothelial cells. The test can be described thus: Human Umbilical Vein Endothelial Cell (HUVEC) Proliferation Assay. The class given is cell-based. To be noted: 96 h, four days incubation, Sulphorhodamine B staining. The procedure:
The compounds of Formula I are useful for treating cell proliferative disorders concerning angiogenesis and have been evaluated in a human umbilical vein endothelial cell in vitro assay. The assay described below is used to determine the anti-proliferative effects of the invention compounds on human umbilical vein endothelial cells, and the results are shown in Table 7.
Human Umbilical Vein Endothelial Cell (HUVEC) Proliferation Assay
Ninety-six well tissue culture plates are seeded with 100 µL of cells in all wells of rows A->G with row H remaining empty as a blank. HUVEC (Clonetics, San Diego, CA) are grown in endothelial growth medium (EGM media, Clonetics), containing 2% fetal bovine serum. The cell seed density for HUVEC cells is 20,000 per mL. C6 cells (ATCC Cat. No. CCL-107) are seeded at 6000 per mL in F10 medium (nutrient mixture Hemes) supplemented with 15% horse serum, 2.5% fetal bovine serum, and 6.0 mL 200 mM Glutamine per 600 mL medium. A90 cells (Suny, Buffalo, NY) are also seeded at 6000 per mL, but they are grown in RPMI 1640 (Roswell Park Memorial Institute) plus 10% fetal bovine serum. Unless noted otherwise, tissue culture media and components are from GIBCO. The cells are allowed to incubate at 37°C, 5% CO2, and 100% relative humidity for 16-24 hours.
Invention compounds are prepared by dissolving them in DMSO at a concentration of 5 mM, followed by dilution to 50 µM in EGM media. One hundred microliters of the compounds are applied to duplicate wells in column 1 of the previously prepared cell plates. Column 1 row H receives 100 µL of EGM media. The compounds in column 1 are diluted across the plates using serial twofold dilutions.
The plates are incubated as above for an additional four days before being stained with Sulphorhodamine B. Staining is performed as follows: The media is removed from the plates, and the cells are fixed using 10% trichloroacetic acid for 30 minutes at 4°C. Following fixation, the plates are washed five times with distilled water after which 100 µL of Sulphorhodamine B is added to each well. Sulphorhodamine B is dissolved in 1% acetic acid to a concentration of .075%. Following staining, excess stain is removed from the wells, and the plates are washed four times with 1% acetic acid. The plates are allowed to air dry before the bound dye is solubilized in 100 µL of 10 mM unbuffered TRIS base. Absorbance is measured on a 96 well plate reader at […] using a reference filter wavelength of 630 nm. […] Sulphorhodamine B and TRIS are from Sigma Chemical Company. Acetic acid and trichloroacetic acid are from Mallinckrodt AR.
In general terms: Sulforhodamine B stains cellular protein and so reports cell mass.

The mark [3] stands for this setting: 25 µM ATP, retinoblastoma substrate, read-out: IC50 (µM) cdk4/D.

T2 sequence (P12931 whole entry): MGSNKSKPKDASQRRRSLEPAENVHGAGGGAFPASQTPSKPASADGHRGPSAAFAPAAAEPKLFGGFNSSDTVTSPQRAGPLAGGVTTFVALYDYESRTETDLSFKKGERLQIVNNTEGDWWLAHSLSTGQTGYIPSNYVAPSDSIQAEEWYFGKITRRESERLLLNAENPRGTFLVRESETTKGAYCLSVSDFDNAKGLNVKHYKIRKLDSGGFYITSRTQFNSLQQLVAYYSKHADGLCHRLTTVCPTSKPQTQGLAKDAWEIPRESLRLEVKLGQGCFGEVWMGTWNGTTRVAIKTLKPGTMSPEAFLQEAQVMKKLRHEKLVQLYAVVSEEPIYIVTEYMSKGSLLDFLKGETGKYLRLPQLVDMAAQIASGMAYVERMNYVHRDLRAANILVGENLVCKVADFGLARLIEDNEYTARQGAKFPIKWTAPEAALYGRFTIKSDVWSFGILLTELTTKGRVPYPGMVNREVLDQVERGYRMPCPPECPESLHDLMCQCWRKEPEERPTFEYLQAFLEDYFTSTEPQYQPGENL
T1 sequence (P11362 478-767 limits assumed): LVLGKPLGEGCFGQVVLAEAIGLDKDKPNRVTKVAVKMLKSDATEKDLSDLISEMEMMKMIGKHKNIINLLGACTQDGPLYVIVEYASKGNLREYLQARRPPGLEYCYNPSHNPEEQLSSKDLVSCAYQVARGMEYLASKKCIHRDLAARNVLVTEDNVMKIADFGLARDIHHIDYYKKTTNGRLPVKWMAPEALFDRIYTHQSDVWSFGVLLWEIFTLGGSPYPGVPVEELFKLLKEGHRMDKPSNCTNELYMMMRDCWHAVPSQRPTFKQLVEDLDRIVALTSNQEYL
cdk4/D, sequence (P11802 whole entry): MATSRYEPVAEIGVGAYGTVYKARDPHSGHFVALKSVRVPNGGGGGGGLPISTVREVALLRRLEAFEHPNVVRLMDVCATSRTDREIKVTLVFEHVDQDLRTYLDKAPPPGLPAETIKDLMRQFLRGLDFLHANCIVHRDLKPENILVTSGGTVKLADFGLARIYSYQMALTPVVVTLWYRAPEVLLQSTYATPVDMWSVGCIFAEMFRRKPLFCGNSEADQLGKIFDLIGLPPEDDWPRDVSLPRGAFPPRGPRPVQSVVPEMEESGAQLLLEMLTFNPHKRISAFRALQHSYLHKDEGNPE
cdk4/D, sequence (P24385 whole entry, further chain): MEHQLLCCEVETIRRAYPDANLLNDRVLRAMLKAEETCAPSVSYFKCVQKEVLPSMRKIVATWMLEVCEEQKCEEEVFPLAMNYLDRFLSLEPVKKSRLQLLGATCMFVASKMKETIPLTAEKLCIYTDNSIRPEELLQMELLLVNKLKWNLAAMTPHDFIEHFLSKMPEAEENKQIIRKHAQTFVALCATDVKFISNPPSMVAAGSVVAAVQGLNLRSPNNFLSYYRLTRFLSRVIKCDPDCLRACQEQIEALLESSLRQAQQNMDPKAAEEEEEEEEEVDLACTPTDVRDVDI
cdc2/cyclinB, sequence (P06493 whole entry): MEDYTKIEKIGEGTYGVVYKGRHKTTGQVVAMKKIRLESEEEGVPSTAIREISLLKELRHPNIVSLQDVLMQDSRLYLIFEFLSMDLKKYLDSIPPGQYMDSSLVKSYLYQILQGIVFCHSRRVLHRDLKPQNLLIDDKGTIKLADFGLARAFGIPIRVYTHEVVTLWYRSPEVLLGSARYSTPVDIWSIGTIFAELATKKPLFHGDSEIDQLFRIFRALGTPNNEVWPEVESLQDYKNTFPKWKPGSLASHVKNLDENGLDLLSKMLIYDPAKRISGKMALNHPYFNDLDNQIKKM
cdc2/cyclinB, sequence (P14635 whole entry, further chain): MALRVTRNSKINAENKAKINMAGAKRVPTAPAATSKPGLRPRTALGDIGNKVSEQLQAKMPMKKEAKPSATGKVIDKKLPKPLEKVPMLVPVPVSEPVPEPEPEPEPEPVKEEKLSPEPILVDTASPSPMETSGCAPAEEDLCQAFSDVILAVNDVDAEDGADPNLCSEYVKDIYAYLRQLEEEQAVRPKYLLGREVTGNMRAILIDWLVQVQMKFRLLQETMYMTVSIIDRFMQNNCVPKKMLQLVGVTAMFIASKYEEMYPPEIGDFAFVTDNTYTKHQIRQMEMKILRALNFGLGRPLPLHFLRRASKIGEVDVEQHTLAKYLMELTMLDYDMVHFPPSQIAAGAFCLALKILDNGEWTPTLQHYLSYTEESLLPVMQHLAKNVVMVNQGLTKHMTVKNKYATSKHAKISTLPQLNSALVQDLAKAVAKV

As to `O=C1NCc2cnc(Nc3ccc(N4CCCCC4)cc3)nc2N1C1CCCC1` [Example 10, 1-Cyclopentyl-7-[4-(piperidin-1-yl)phenylamino]-3,4-dihydropyrimido[4,5-d]pyrimidin-2(1H)-one], the figures for the IC50 (in test [1]; against c-Src; on cdk4/D (setting [3])) were 0.64 µM, greater than 50 µM and 1.55 µM, respectively.
For the molecule `O=C1NCc2cnc(Nc3ccc(-n4cccc4)cc3)nc2N1C1CCCC1` [Example 14, 1-Cyclopentyl-7-[4-(pyrrol-1-yl)phenylamino]-3,4-dihydropyrimido[4,5-d]pyrimidin-2(1H)-one], the IC50 at cdc2/cyclinB was greater than 20 µM; at cdk2/cyclinA, 5.1 µM; on c-Src it was greater than 50 µM; on cdk4/D it was 17.8 µM.
With `O=C1NCc2cnc(Nc3ccc(N4CCC(O)CC4)cc3)nc2N1C1CCCC1` [Example 15, 1-Cyclopentyl-7-[4-(4-hydroxypiperidin-1-yl)phenylamino]-3,4-dihydropyrimido[4,5-d]pyrimidin-2(1H)-one], the IC50 on cdc2/cyclinB (retinoblastoma substrate, read-out: IC50 (µM) cdkl/B) was 16.8 µM; in test [1], 0.05 to 0.5 µM; at cdk2/cyclinA (retinoblastoma substrate, read-out: IC50 (µM) cdk2/A) it was 0.6 µM; on cdk2/cyclinE (retinoblastoma substrate, read-out: IC50 (µM) cdk2/E) it was 2.2 µM; against c-Src, 2.4 µM; on cdk4/D (setting [3]), 0.7 µM.
`O=C1NCc2cnc(Nc3ccc(N4CCCCC4CO)cc3)nc2N1C1CCCC1` (stereo not drawn) [Example 19, 1-Cyclopentyl-7-[4-(2-hydroxymethylpiperidin-1-yl)phenylamino]-3,4-dihydro-pyrimido[4,5-d]pyrimidin-2(1H)-one]: the values for the IC50 (in test [1]; against c-Src; on cdk4/D) were 0.05 to 0.5 µM, 4.42 µM and 0.5 µM, respectively.
As to `CC(C)N1C(=O)NCc2cnc(Nc3ccc(N4CCN(C)CC4)cc3)nc21` [Example 22, 1-Isopropyl-7-[4-(4-methylpiperazin-1-yl)phenylamino]-3,4-dihydropyrimido[4,5-d]pyrimidin-2(1H)-one], the IC50 at cdk2/cyclinA came out at 9.31 µM; on c-Src it was 1.51 µM; on cdk4/D it was 0.34 µM.
Consider `CC(C)n1c(=O)ncc2cnc(Nc3ccc(N4CCN(C)CC4)cc3)nc21` [Example 40, 1-Isopropyl-7-[4-(4-methylpiperazin-1-yl)phenylamino]pyrimido[4,5-d]pyrimidin-2(1H)-one], for which the IC50 worked out at 1.13 µM in test [1], 4.51 µM on cdk2/cyclinA, 16.5 µM on cdk2/cyclinE and 4.3 µM against c-Src.
`CCN(CC)CCCCNc1ncc2c(n1)NC(=O)N(c1cc(OC)cc(OC)c1)C2` [Example 52, 7-(4-Diethylamino-butylamino)-3-(3,5-dimethoxy-phenyl)-3,4-dihydropyrimido[4,5-d]pyrimidin-2(1H)-one] gave an IC50 in test [2] of 6.65 µM.
Same read-out and setting: to `COc1cc(OC)cc(N2Cc3cnc(NCCNCc4ccncc4)nc3NC2=O)c1` [Example 54, 3-(3,5-Dimethoxy-phenyl)-7-{2-[(pyridin-4-ylmethyl)-amino]-ethylamino}-3,4-dihydro-pyrimido[4,5-d]pyrimidin-2(1H)-one] belongs greater than 25 µM; to `COc1cc(OC)cc(N2Cc3cnc(NCCCN4CCN(C)CC4)nc3NC2=O)c1` [Example 54a, 3-(3,5-Dimethoxy-phenyl)-7-[3-(4-methyl-piperazin-1-yl)-propylamino]-3,4-dihydro-1H-pyrimido[4,5-d]pyrimidin-2(1H)-one], 5.99 µM.
`COc1cc(OC)cc(N2Cc3cnc(NCCCCN4CCN(C)CC4)nc3NC2=O)c1` [Example 54b, 3-(3,5-Dimethoxy-phenyl)-7-[4-(4-methyl-piperazin-1-yl)-butylamino]-3,4-dihydro-pyrimido[4,5-d]pyrimidin-2(1H)-one] showed an IC50 in test [2] of 4.96 µM.
`COc1cc(OC)cc(N2Cc3cnc(NCCCCCN4CCN(C)CC4)nc3NC2=O)c1` [Example 54c, 3-(3,5-Dimethoxy-phenyl)-7-[5-(4-methyl-piperazin-1-yl)-pentylamino]-3,4-dihydro-pyrimido[4,5-d]pyrimidin-2(1H)-one]: the IC50 in test [2] came out at 5.78 µM.
In turn, `CCN(CC)CCCNc1ncc2c(n1)NC(=O)N(c1cc(OC)cc(OC)c1)C2` [Example 55, 7-(3-Diethylamino-propylamino)-3-(3,5-dimethoxy-phenyl)-3,4-dihydropyrimido[4,5-d]pyrimidin-2(1H)-one] registered an IC50 in test [2] greater than 25 µM.
Consider `CCN1C(=O)N(c2cc(OC)cc(OC)c2)Cc2cnc(NCCNCc3ccncc3)nc21` [Example 56, 3-(3,5-Dimethoxy-phenyl)-1-ethyl-7-{2-[(pyridin-4-ylmethyl)-amino]-ethylamino}-3,4-dihydro-pyrimido[4,5-d]pyrimidin-2(1H)-one], for which, in test [2], the IC50 was found to be 1.93 µM.
